This assay has as its target T1, human OX2R (Homo sapiens, UniProt O43614).
T1 construct: expressed in transfected cells
T1 sequence (O43614 1-444): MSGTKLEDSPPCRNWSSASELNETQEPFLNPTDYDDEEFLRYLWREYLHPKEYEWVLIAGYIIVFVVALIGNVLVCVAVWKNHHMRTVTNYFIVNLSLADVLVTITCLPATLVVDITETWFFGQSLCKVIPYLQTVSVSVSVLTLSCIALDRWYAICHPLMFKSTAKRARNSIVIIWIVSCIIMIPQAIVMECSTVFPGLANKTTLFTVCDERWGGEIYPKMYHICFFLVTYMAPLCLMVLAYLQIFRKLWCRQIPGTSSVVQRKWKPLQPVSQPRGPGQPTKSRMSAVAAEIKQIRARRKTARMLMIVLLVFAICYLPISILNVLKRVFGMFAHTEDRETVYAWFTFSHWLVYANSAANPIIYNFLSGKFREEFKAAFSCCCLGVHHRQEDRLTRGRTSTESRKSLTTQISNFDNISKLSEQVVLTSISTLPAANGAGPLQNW
Kind of assay: Measurement of OX2R agonist activity (intracellular calcium concentration change, Fluo4-AM, FDSS 7000). The following applies: compound concentration 10 μM; human OX2R-expressing CHO-K1 cells; 1 μM human orexin A peptide = 100%, medium alone = 0%. It is filed as cell-based. An excerpt:
The following abbreviations in the description, the figures and the tables have the following meanings, respectively. • AZADOL (registered trademark): 2-Hydroxy-2-azaadamantane • Boc2O: di-tert-butyl dicarbonate • DIPEA: N,N-diisopropylethylamine • DCM: dichloromethane • DMAP: 4-dimethylaminopyridine • DMF: N,N-dimethylformamide • DMSO: dimethylsulfoxide • Deoxo-Fluor: bis(2-methoxyethyl)-aminosulfur trifluoride • HATU: O-(7-azabenzotriazol-1-yl)-N,N,N′,N′-tetramethyluronium hexafluorophosphate • LDA: lithium diisopropylamide • MeCN: acetonitrile • Me4tBuXPhos: 2-di-tert-butylphosphino-3,4,5,6-tetramethyl-2′,4′,6′-triisopropyl-1,1′-biphenyl • MTBE: methyl tert-butyl ether • NMP: N-methylpyrrolidone • PdCl2(PPh3)2: dichlorobis(triphenylphosphine)palladium(II) • Pd(dba)2: bis(dibenzylideneacetone)palladium(0) • Pd2(dba)3: tris(dibenzylideneacetone)dipalladium(0) • Pd(dppf)Cl2: [1,1′-bis(diphenylphosphino)ferrocene]dichloropalladium(II) • Pd(PPh3)4: tetrakis(triphenylphosphine)palladium(0) • TEA: triethylamine • TFA: trifluoroacetic acid • THF: tetrahydrofuran • Xphos: 2-dicyclohexylphosphino-2′,4′,6′-triisopropylbiphenyl • Xphos Pd G3: (2-dicyclohexylphosphino-2′,4′,6′-triisopropyl-1,1′-biphenyl)[2-(2′-amino-1,1′-biphenyl)]palladium(II) methanesulfonic acid salt • 10% Pd/C: Palladium 10% on Carbon (wetted with ca. 55% water) • APS: aminopropylated silica gel • ODS: octadecyl-silylated silica gel • Method A: column chromatography with an aminopropylated silica gel column followed by a silica gel column • Chiral preparative column chromatography: chiral preparative column chromatography using YMC CHIRALART Cellulose-SB • Ref. No.: Reference Example Number • Str.: structural formula • Ex. No.: Example Number • Phys. data: physical data • ^1H-NMR: hydrogen nuclear magnetic resonance spectrum • CDCl3: chloroform-d1 • MS: mass spectrometry (The measured values in the tables were measured by electrospray ionization or multiionization using electrospray ionization-atmospheric pressure chemical ionization.) • Act.: activation rate of test substance at a compound concentration of 10 μM calculated by setting the fluorescence intensity obtained when human orexin A peptide was added at a concentration of 1 μM as 100% and the fluorescence intensity obtained when the medium alone was added as 0% • CHO: Chinese hamster ovary • HEPES: 2-[4-(2-hydroxyethyl)-1-piperazinyl]ethanesulfonic acid
A human OX2R sequence (Accession No. NM_001526.4) was inserted into the multiple cloning site of pcDNA3.4 (Life Technologies Japan Ltd.) to clone a plasmid vector for human OX2R expression. The plasmid was introduced into CHO-K1 cells using Lipofectamine 2000 (Life Technologies Japan Ltd.). Two days later, the transgenic CHO-K1 cells were passaged into 175T flasks and cultured selectively for 6 days. As a selection medium, Ham's F-12 Nutrient Mix (Life Technologies Japan Ltd.), containing Geneticin (registered trademark) (Life Technologies Japan Ltd.) at a final concentration of 1 mg/mL and inactivated fetal bovine serum (Biowest) at a final concentration of 10%, was used. After the selective culture, the cells were reseeded into 96-well plates, and a human OX2R-expressing cell line was obtained by limiting dilution.
The agonist effects of test substances on human OX2R were evaluated using the intracellular calcium concentration-change upon stimulation as an indicator. A day before measurement of the intracellular calcium concentrations, human OX2R-expressing cells suspended in a medium were seeded into 384-well plates at 5×10^3 cells/50 μL/well and cultured overnight in an incubator set at 37° C. and 5% CO2. After incubation, the medium was removed and replaced with 20 μL of a loading buffer. […]
(In general: Calcium flux is commonly read through the fluorescence of an indicator in the cells.)
`CON(C)C(=O)[C@@]1(Cc2cc(-c3ncccn3)ccc2F)C[C@H](F)[C@H](NS(=O)(=O)C(F)(F)F)C1` (relative stereo) [Example 38, (1R*,3S*,4R*)-3-Fluoro-1-(2-fluoro-5-(pyrimidin-2-yl)benzyl)-N-methoxy-N-methyl-4-((trifluoromethyl)sulfonamido)cyclopentane-1-carboxamide]: the “Act. (%): activation rate of test substance” value (shortened to “Act. (%): activation rate”) worked out at 93%.
As for `CON(C)C(=O)[C@@]1(Cc2ccc(O)c(-c3ncc(F)cn3)c2)C[C@H](F)[C@H](NS(C)(=O)=O)C1` (relative stereo) [Example 39, (1R*,3S*,4R*)-3-Fluoro-1-(3-(5-fluoropyrimidin-2-yl)-4-hydroxybenzyl)-N-methoxy-N-methyl-4-(methylsulfonamido)cyclopentane-1-carboxamide], the “Act. (%): activation rate” value is listed as 91%.
In the case of `CON(C)C(=O)[C@]1(Cc2cccc(-c3ncccn3)c2)C[C@@H](NS(C)(=O)=O)C(F)(F)C1` (relative stereo) [Example 40, (1R*,4R*)-3,3-Difluoro-N-methoxy-N-methyl-4-(methylsulfonamido)-1-(3-(pyrimidin-2-yl)benzyl)cyclopentane-1-carboxamide], the “Act. (%): activation rate” value was 88%.
Consider `CON(C)C(=O)[C@]1(Cc2cccc(-c3ncc(F)cn3)c2)C[C@@H](NS(=O)(=O)N(C)C)C(F)(F)C1` (relative stereo) [Example 41], for which the “Act. (%): activation rate” value is reported as 93%.
Under `CON(C)C(=O)[C@]1(Cc2ccc(F)c(-c3ncc(F)cn3)c2)C[C@@H](NS(C)(=O)=O)C(F)(F)C1` (relative stereo) [Example 42] stands 87%.
Under `CON(C)C(=O)[C@]1(Cc2cc(-c3ncc(F)cn3)ccc2F)C[C@@H](NS(C)(=O)=O)C(F)(F)C1` (relative stereo) [Example 43] stands 93%.
Turning to `CON(C)C(=O)[C@@]1(Cc2cccc(-c3ncc(F)cn3)c2)C[C@@H](C)[C@H](NS(C)(=O)=O)C1` (relative stereo) [Example 44, (1R*,3R*,4R*)-1-(3-(5-Fluoropyrimidin-2-yl)benzyl)-N-methoxy-N,3-dimethyl-4-(methylsulfonamido)cyclopentane-1-carboxamide], the “Act. (%): activation rate” value came to 96%.
Under `CON(C)C(=O)[C@@]1(Cc2cccc(-c3ncc(F)cn3)c2)C[C@H](C)[C@H](NS(C)(=O)=O)C1` (relative stereo) [Example 45, (1R*,3S*,4R*)-1-(3-(5-Fluoropyrimidin-2-yl)benzyl)-N-methoxy-N,3-dimethyl-4-(methylsulfonamido)cyclopentane-1-carboxamide] stands 93%; under `COCCNC(=O)[C@@]1(Cc2cccc(-c3ccccc3)c2)CC[C@H](NS(C)(=O)=O)C1` (relative stereo) [Example 69], 44%; under `CO[C@H]1CCN(C(=O)[C@@]2(Cc3cccc(-c4ccccc4)c3)CC[C@H](NS(C)(=O)=O)C2)C1` (relative stereo) [Example 70], 27%.
The result for `CS(=O)(=O)N[C@H]1CC[C@](Cc2cccc(-c3ccccc3)c2)(C(=O)N2CCCC2C(F)(F)F)C1` (relative stereo) [Example 71, N-((1S*,3R*)-3-([1,1′-Biphenyl]-3-ylmethyl)-3-(2-(trifluoromethyl)pyrrolidine-1-carbonyl)cyclopentyl)methanesulfonamide] reads 41%; that for `CS(=O)(=O)N[C@H]1CC[C@](Cc2cccc(-c3ccccc3)c2)(C(N)=O)C1` (relative stereo) [Example 72, (1R*,3S*)-1-([1,1′-Biphenyl]-3-ylmethyl)-3-(methylsulfonamido)cyclopentane-1-carboxamide], 23%; that for `CS(=O)(=O)N[C@H]1CC[C@](Cc2cccc(-c3ccccc3)c2)(C(=O)NCCO)C1` (relative stereo) [Example 73, (1R*,3S*)-1-([1,1′-Biphenyl]-3-ylmethyl)-N-(2-hydroxyethyl)-3-(methylsulfonamido)cyclopentane-1-carboxamide], 36%.
The result for `CS(=O)(=O)N[C@H]1CC[C@](Cc2cccc(-c3ccccc3)c2)(C(=O)NCC(F)(F)F)C1` (relative stereo) [Example 74, (1R*,3S*)-1-([1,1′-Biphenyl]-3-ylmethyl)-3-(methylsulfonamido)-N-(2,2,2-trifluoroethyl)cyclopentane-1-carboxamide] reads 33%; that for `CS(=O)(=O)N[C@H]1CC[C@](Cc2cccc(-c3ccccc3)c2)(C(=O)N2CCC(F)(F)C2)C1` (relative stereo) [Example 75], 23%; that for `CON(C)C(=O)C1(Cc2cccc(-c3ncccn3)c2)CCC(NS(C)(=O)=O)C1` (single isomer, unassigned) [Example 46, N-Methoxy-N-methyl-3-(methylsulfonamido)-1-(3-(pyrimidin-2-yl)benzyl)cyclopentane-1-carboxamide], 93%.
On to `CON(C)C(=O)C1(Cc2cccc(-c3ncccn3)c2)CCC(NS(C)(=O)=O)C1` (single isomer, unassigned) [Example 47, N-Methoxy-N-methyl-3-(methylsulfonamido)-1-(3-(pyrimidin-2-yl)benzyl)cyclopentane-1-carboxamide], for which the “Act. (%): activation rate” value came to 52%.
Regarding `CON(C)C(=O)[C@@]1(Cc2ccc(F)c(-c3ncc(F)cn3)c2)CC[C@H](NS(C)(=O)=O)C1` [Example 48, (1R,3S)-1-(4-Fluoro-3-(5-fluoropyrimidin-2-yl)benzyl)-N-methoxy-N-methyl-3-(methylsulfonamido)cyclopentane-1-carboxamide], the “Act. (%): activation rate” value turned out to be 101%.
Regarding `CON(C)C(=O)[C@@]1(Cc2ccc(Cl)c(-c3ncc(F)cn3)c2)CC[C@H](NS(C)(=O)=O)C1` [Example 49, (1R,3S)-1-(4-Chloro-3-(5-fluoropyrimidin-2-yl)benzyl)-N-methoxy-N-methyl-3-(methylsulfonamido)cyclopentane-1-carboxamide], the “Act. (%): activation rate” value is listed as 88%.
Take `CON(C)C(=O)[C@@]1(Cc2ccc(F)c(-c3ncc(F)cn3)c2)CC[C@H](NS(=O)(=O)CF)C1` [Example 50, (1R,3S)-1-(4-Fluoro-3-(5-fluoropyrimidin-2-yl)benzyl)-3-((fluoromethyl)sulfonamido)-N-methoxy-N-methylcyclopentane-1-carboxamide]: the “Act. (%): activation rate” value was found to be 110%.
`CON(C)C(=O)[C@@]1(Cc2ccc(F)c(-c3ncc(F)cn3)c2)CC[C@H](NS(=O)(=O)C(F)F)C1` [Example 51, (1R,3S)-3-((Difluoromethyl)sulfonamido)-1-(4-fluoro-3-(5-fluoropyrimidin-2-yl)benzyl)-N-methoxy-N-methylcyclopentane-1-carboxamide]: the “Act. (%): activation rate” value was found to be 98%.

The values above are taken from patent US20260124201A1, “CYCLOPENTANE COMPOUND” (Kissei Pharmaceutical Co., Ltd., priority 2022, published 2026).
